Assay in all cases: relative viability (nuclei count vs DMSO), 5 days (fraction); higher = more cells survive
Compound in the test “BI-D1870 + Alpelisib”: CC(C)CCN1c2nc(Nc3cc(F)c(O)c(F)c3)ncc2N(C)C(=O)C1C [BI-D1870] + Cc1nc(NC(=O)N2CCC[C@H]2C(N)=O)sc1-c1ccnc(C(C)(C)C(F)(F)F)c1 [Alpelisib] (partner 2 µM)
In a few lines: (§1)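 A single step with final 0.05% Triton X-100, 1% formaldehyde and 1 ug/ml Hoechst fixed the cells and stained nuclei 5 days after treatment. Lung cancer cell lines in 1536-well plates had been treated by pin tool the day after seeding with one drug alone or a fixed anchor-drug dose plus five library-drug doses (not always all listed) in √10 steps, and nuclei were counted on 4× images. Relative viability is the ratio of nuclei in treated wells to nuclei in vehicle wells, taken as the median of duplicate plates.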

Compound in the test “BI-D1870 + Phenformin”: CC(C)CCN1c2nc(Nc3cc(F)c(O)c(F)c3)ncc2N(C)C(=O)C1C [BI-D1870] + N=C(N)NC(=N)NCCc1ccccc1 [Phenformin] (partner 250 µM)
In short, it runs like this:
as §1

Compound in the test “Zebularine + Vorinostat”: O=c1ncccn1[C@@H]1O[C@H](CO)[C@@H](O)[C@H]1O [Zebularine] + O=C(CCCCCCC(=O)Nc1ccccc1)NO [Vorinostat] (partner 1 µM)
In short, it runs like this:
as §1

Compound in the test “BI-D1870 + Trametinib”: CC(C)CCN1c2nc(Nc3cc(F)c(O)c(F)c3)ncc2N(C)C(=O)C1C [BI-D1870] + CC(=O)Nc1cccc(-n2c(=O)n(C3CC3)c(=O)c3c(Nc4ccc(I)cc4F)n(C)c(=O)c(C)c32)c1 [Trametinib] (partner 0.02 µM)
In a few lines:
as §1

Take LC-2-ad: the relative viability with BI-D1870 + Alpelisib (first compound 0.04 µM) was determined as 0.962; with BI-D1870 + Alpelisib (first compound 0.1265 µM), 0.836; with BI-D1870 + Alpelisib (first compound 0.4 µM), 0.849; in the test with BI-D1870 + Alpelisib (first compound 1.265 µM) it was 0.855; with BI-D1870 + Alpelisib (first compound 4 µM), 0.701; with BI-D1870 + Phenformin (first compound 0.04 µM), 0.586. For the same cell line, the relative viability in the test with BI-D1870 + Phenformin (first compound 0.1265 µM) worked out at 0.657; with BI-D1870 + Phenformin (first compound 0.4 µM) it was 0.502; with BI-D1870 + Phenformin (first compound 1.265 µM), 0.636; with BI-D1870 + Phenformin (first compound 4 µM), 0.54; with Zebularine + Vorinostat (first compound 1 µM) it was 0.759; with Zebularine + Vorinostat (first compound 3.162 µM), 0.691. Besides, the relative viability in the test with Zebularine + Vorinostat (first compound 10 µM) amounted to 0.527; with Zebularine + Vorinostat (first compound 31.62 µM), 0.644; with Zebularine + Vorinostat (first compound 100 µM), 0.324; with BI-D1870 + Trametinib (first compound 0.04 µM) it was 0.897; with BI-D1870 + Trametinib (first compound 0.1265 µM), 0.848; with BI-D1870 + Trametinib (first compound 0.4 µM), 0.957. Further, the results for the relative viability in the test with BI-D1870 + Trametinib (first compound 1.265 µM) and with BI-D1870 + Trametinib (first compound 4 µM) were 0.956 and 0.882, respectively.
Take NCI-H522: the relative viability turned out to be 0.754 with BI-D1870 + Phenformin (first compound 0.04 µM); 0.603 in the test with BI-D1870 + Phenformin (first compound 0.1265 µM); 0.677 in the test with BI-D1870 + Phenformin (first compound 0.4 µM); 0.763 with BI-D1870 + Phenformin (first compound 1.265 µM); 0.692 with BI-D1870 + Phenformin (first compound 4 µM); 0.797 with Zebularine + Vorinostat (first compound 1 µM). The relative viability in the test with Zebularine + Vorinostat (first compound 3.162 µM) was 0.938; in the test with Zebularine + Vorinostat (first compound 10 µM) it was 0.802; with Zebularine + Vorinostat (first compound 31.62 µM), 1.01; in the test with Zebularine + Vorinostat (first compound 100 µM), 0.778; in the test with BI-D1870 + Trametinib (first compound 0.04 µM) it was 0.69; with BI-D1870 + Trametinib (first compound 0.1265 µM), 0.764. For the same cell line, the relative viability with BI-D1870 + Trametinib (first compound 0.4 µM) is 0.722; with BI-D1870 + Trametinib (first compound 1.265 µM), 0.836; with BI-D1870 + Trametinib (first compound 4 µM), 0.776.
As to NCI-H1299, the relative viability was determined as 1.05 with BI-D1870 + Alpelisib (first compound 0.04 µM); 1.04 in the test with BI-D1870 + Alpelisib (first compound 0.1265 µM); 1.07 in the test with BI-D1870 + Alpelisib (first compound 0.4 µM); 1.15 with BI-D1870 + Alpelisib (first compound 1.265 µM); 0.993 in the test with BI-D1870 + Alpelisib (first compound 4 µM).
NCI-H1563: the relative viability worked out at 0.946 in the test with BI-D1870 + Alpelisib (first compound 0.04 µM); 0.863 with BI-D1870 + Alpelisib (first compound 0.1265 µM); 0.982 in the test with BI-D1870 + Alpelisib (first compound 0.4 µM); 0.897 with BI-D1870 + Alpelisib (first compound 1.265 µM); 0.945 with BI-D1870 + Alpelisib (first compound 4 µM); 0.669 in the test with BI-D1870 + Phenformin (first compound 0.04 µM). The relative viability with BI-D1870 + Phenformin (first compound 0.1265 µM) came out at 0.651; with BI-D1870 + Phenformin (first compound 0.4 µM) it was 0.643; with BI-D1870 + Phenformin (first compound 1.265 µM) it was 0.682; with BI-D1870 + Phenformin (first compound 4 µM), 0.728.
For the cell line NCI-H1623, the relative viability in the test with BI-D1870 + Phenformin (first compound 0.04 µM) was 0.574; with BI-D1870 + Phenformin (first compound 0.1265 µM) it was 0.494; with BI-D1870 + Phenformin (first compound 0.4 µM) it was 0.562; with BI-D1870 + Phenformin (first compound 1.265 µM) it was 0.572; in the test with BI-D1870 + Phenformin (first compound 4 µM), 0.542.
For NCI-H1648, the relative viability in the test with Zebularine + Vorinostat (first compound 1 µM) was 0.554; in the test with Zebularine + Vorinostat (first compound 3.162 µM) it was 0.494; with Zebularine + Vorinostat (first compound 10 µM), 0.479; in the test with Zebularine + Vorinostat (first compound 31.62 µM), 0.262; with Zebularine + Vorinostat (first compound 100 µM), 0.48; with BI-D1870 + Trametinib (first compound 0.04 µM), 0.445. The relative viability worked out at 0.54 with BI-D1870 + Trametinib (first compound 0.1265 µM), 0.552 with BI-D1870 + Trametinib (first compound 1.265 µM) and 0.49 with BI-D1870 + Trametinib (first compound 4 µM).
In the case of NCI-H1650, the relative viability was determined as 0.368 with BI-D1870 + Phenformin (first compound 0.04 µM); 0.362 with BI-D1870 + Phenformin (first compound 0.1265 µM); 0.358 with BI-D1870 + Phenformin (first compound 0.4 µM); 0.414 with BI-D1870 + Phenformin (first compound 1.265 µM); 0.304 with BI-D1870 + Phenformin (first compound 4 µM); 0.645 with Zebularine + Vorinostat (first compound 1 µM). For the same cell line, the relative viability was 0.57 with Zebularine + Vorinostat (first compound 3.162 µM); 0.506 in the test with Zebularine + Vorinostat (first compound 10 µM); 0.748 with Zebularine + Vorinostat (first compound 31.62 µM); 0.373 with Zebularine + Vorinostat (first compound 100 µM); 0.705 with BI-D1870 + Trametinib (first compound 0.04 µM); 0.551 with BI-D1870 + Trametinib (first compound 0.1265 µM). Moreover, the relative viability was 0.573 with BI-D1870 + Trametinib (first compound 0.4 µM), 0.64 with BI-D1870 + Trametinib (first compound 1.265 µM) and 0.552 in the test with BI-D1870 + Trametinib (first compound 4 µM).
On to NCI-H1703, for which the relative viability with BI-D1870 + Alpelisib (first compound 0.04 µM) worked out at 0.263; in the test with BI-D1870 + Alpelisib (first compound 0.1265 µM) it was 0.341; in the test with BI-D1870 + Alpelisib (first compound 0.4 µM) it was 0.301; with BI-D1870 + Alpelisib (first compound 1.265 µM), 0.379; with BI-D1870 + Alpelisib (first compound 4 µM), 0.305.
Take NCI-H1792: the relative viability with BI-D1870 + Alpelisib (first compound 0.04 µM) worked out at 0.724; with BI-D1870 + Alpelisib (first compound 0.1265 µM), 0.677; with BI-D1870 + Alpelisib (first compound 0.4 µM), 0.641; with BI-D1870 + Alpelisib (first compound 1.265 µM) it was 0.736; in the test with BI-D1870 + Alpelisib (first compound 4 µM), 0.538; with BI-D1870 + Phenformin (first compound 0.04 µM), 0.361. Further, the relative viability with BI-D1870 + Phenformin (first compound 0.1265 µM) worked out at 0.289; with BI-D1870 + Phenformin (first compound 0.4 µM), 0.259; with BI-D1870 + Phenformin (first compound 1.265 µM), 0.504; with BI-D1870 + Phenformin (first compound 4 µM), 0.508; in the test with BI-D1870 + Trametinib (first compound 0.04 µM), 0.489; in the test with BI-D1870 + Trametinib (first compound 0.1265 µM), 0.349. In addition, the relative viability was 0.437 in the test with BI-D1870 + Trametinib (first compound 0.4 µM), 0.567 with BI-D1870 + Trametinib (first compound 1.265 µM) and 0.372 with BI-D1870 + Trametinib (first compound 4 µM).
Regarding NCI-H2342, the relative viability with BI-D1870 + Phenformin (first compound 0.04 µM) amounted to 0.546; with BI-D1870 + Phenformin (first compound 0.1265 µM), 0.609; with BI-D1870 + Phenformin (first compound 0.4 µM), 0.606; with BI-D1870 + Phenformin (first compound 1.265 µM), 0.733; with BI-D1870 + Phenformin (first compound 4 µM) it was 0.829; in the test with Zebularine + Vorinostat (first compound 1 µM) it was 0.863. The relative viability with Zebularine + Vorinostat (first compound 3.162 µM) was found to be 0.642; with Zebularine + Vorinostat (first compound 10 µM) it was 0.674; with Zebularine + Vorinostat (first compound 31.62 µM), 0.679; with Zebularine + Vorinostat (first compound 100 µM), 0.712; with BI-D1870 + Trametinib (first compound 0.04 µM), 0.794; with BI-D1870 + Trametinib (first compound 0.1265 µM), 0.805. The relative viability with BI-D1870 + Trametinib (first compound 0.4 µM) came to 0.881; with BI-D1870 + Trametinib (first compound 1.265 µM), 1; in the test with BI-D1870 + Trametinib (first compound 4 µM) it was 1.01.
For SW 900, the relative viability with BI-D1870 + Phenformin (first compound 0.04 µM) came out at 0.748; with BI-D1870 + Phenformin (first compound 0.1265 µM), 0.452; in the test with BI-D1870 + Phenformin (first compound 0.4 µM) it was 0.63; with BI-D1870 + Phenformin (first compound 1.265 µM), 0.672; with BI-D1870 + Phenformin (first compound 4 µM), 0.618; in the test with Zebularine + Vorinostat (first compound 1 µM), 0.497. The relative viability with Zebularine + Vorinostat (first compound 3.162 µM) amounted to 0.667; with Zebularine + Vorinostat (first compound 31.62 µM), 0.67; in the test with Zebularine + Vorinostat (first compound 100 µM) it was 0.503; in the test with BI-D1870 + Trametinib (first compound 0.04 µM), 0.883; with BI-D1870 + Trametinib (first compound 0.1265 µM) it was 0.83; in the test with BI-D1870 + Trametinib (first compound 0.4 µM) it was 0.858. Also, the relative viability with BI-D1870 + Trametinib (first compound 1.265 µM) turned out to be 0.762; in the test with BI-D1870 + Trametinib (first compound 4 µM), 0.984.
